Patent US20230220035A1 (DONG-A ST CO., LTD., published 2023)
*1 amine or outer side, *2 acyl side, *3 side chain or, on linkers, in order; H or OH if unused. Side-chain parts run from the residue outwards. [ ]: non-standard residue; d: D form. The star is where a group is joined. γGlu = O=C(O)[C@H](CCC(=O)[*:2])N[*:1]; Stearoyl = CCCCCCCCCCCCCCCCCC(=O)*; Palmitoyl = CCCCCCCCCCCCCCCC(=O)*; AEEA = NCCOCCOCC(=O)O; Aib = CC(C)(N)C(=O)O

What was measured:
in vivo [1] = conditions: ICR, mouse, sc
Excerpt: ICR mice were used to evaluate the pharmacokinetics in mice of the acylated oxyntomodulin peptide analogs according to the present invention.

in vivo [2] = conditions: cynomolgus monkey, sc
Excerpt: Cynomolgus monkeys were used to evaluate the pharmacokinetics in monkeys of the acylated oxyntomodulin peptide analogs according to the present invention.

GLP-1 receptor = GLP-1 receptor (Homo sapiens, UniProt P43220); test: Human GLP-1 receptor activation assay (CRE-luciferase); type: cell-based; set-up: host or cells: CHO-K1; conditions: for Emax: CHO-K1, 6 h, read-out: GLP-1 receptor Maximum activation (% vs GLP-1); for EC50: CHO-K1 cells transiently transfected, luciferase, 6 hours, 0.1% BSA
Sequence of GLP-1 receptor (P43220 24-463): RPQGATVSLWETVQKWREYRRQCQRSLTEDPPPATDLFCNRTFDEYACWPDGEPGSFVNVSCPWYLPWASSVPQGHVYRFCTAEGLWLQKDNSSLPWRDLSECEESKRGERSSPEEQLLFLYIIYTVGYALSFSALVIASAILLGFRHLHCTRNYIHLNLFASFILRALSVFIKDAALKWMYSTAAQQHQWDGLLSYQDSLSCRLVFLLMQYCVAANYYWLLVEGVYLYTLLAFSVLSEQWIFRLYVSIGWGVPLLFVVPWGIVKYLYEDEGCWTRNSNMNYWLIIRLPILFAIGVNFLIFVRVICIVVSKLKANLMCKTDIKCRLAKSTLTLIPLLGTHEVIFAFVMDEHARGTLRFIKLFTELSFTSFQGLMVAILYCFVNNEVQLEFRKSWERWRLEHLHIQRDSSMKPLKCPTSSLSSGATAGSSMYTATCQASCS
Protocol: (§1) Then, the resulting increased luciferase activity was evaluated as a measurement of the effect on each receptor activation.
(§2) For positive control, endogenous ligand GLP-1 or glucagon was used for respective evaluation. The above-mentioned acylated oxyntomodulin peptide analogs of Comparative Example 8-12 were synthesized and used as comparative examples.
(§3) After 3 hours of transfection, medium was exchanged to Alpha Minimal Essential Medium (α-MEM) comprising 10% fetal bovine serum (FBS). Next day, the medium was exchanged to α-MEM comprising the acylated oxyntomodulin peptide analog of the present invention and 0.1% bovine serum albumin (BSA). After 6 hours, dual luciferase assay reagent (Promega) was added in the same amount as the medium in which the cells were submerged, and firefly luciferase and Renilla luciferase activities were successively measured. Firefly luciferase activity values were corrected against Renilla luciferase activity to yield transfection efficiency.

glucagon receptor = glucagon receptor (Homo sapiens, UniProt P47871); test: Human glucagon receptor activation assay (CRE-luciferase); type: cell-based; set-up: host or cells: CHO-K1; conditions: CHO-K1 cells transiently transfected; for Emax: 6 h, relative to glucagon, read-out: GCG receptor Maximum activation (% vs GCG); for EC50: 6 hours, 0.1% BSA, read-out: GCG receptor EC50
Sequence of glucagon receptor (P47871 26-477): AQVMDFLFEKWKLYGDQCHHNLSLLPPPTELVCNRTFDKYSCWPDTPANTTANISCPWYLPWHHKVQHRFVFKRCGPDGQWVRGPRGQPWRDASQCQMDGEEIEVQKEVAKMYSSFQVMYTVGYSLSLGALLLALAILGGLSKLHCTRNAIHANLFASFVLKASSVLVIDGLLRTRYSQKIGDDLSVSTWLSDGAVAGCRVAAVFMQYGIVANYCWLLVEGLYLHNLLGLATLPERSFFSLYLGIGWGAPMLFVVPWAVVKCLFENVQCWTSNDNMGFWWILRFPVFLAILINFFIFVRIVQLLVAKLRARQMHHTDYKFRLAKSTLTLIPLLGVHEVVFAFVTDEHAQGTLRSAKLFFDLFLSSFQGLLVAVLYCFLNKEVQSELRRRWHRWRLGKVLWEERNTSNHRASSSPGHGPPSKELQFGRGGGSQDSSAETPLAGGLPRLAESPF
Protocol: as §1, §2, §3

[3] = system: overweight and obese patients; conditions: subcutaneously for 4 weeks, 3 times per day; cited from earlier work
Human GLP-1 receptor = Human GLP-1 receptor (human, UniProt P43220); test: cell-based or functional assay
Human glucagon receptor = Human glucagon receptor (human, UniProt P47871); test: cell-based or functional assay

CCCCCCCCCCCCCCCCCC(=O)N[C@@H](CCC(=O)NCCOCCOCC(=O)NCCOCCOCC(=O)NCCCC[C@H](NC(=O)[C@H](CC(=O)O)NC(=O)[C@H](CO)NC(=O)[C@@H](NC(=O)[C@H](Cc1ccccc1)NC(=O)[C@@H](NC(=O)CNC(=O)[C@H](CCC(N)=O)NC(=O)C(C)(C)NC(=O)[C@@H](N)Cc1c[nH]cn1)[C@@H](C)O)[C@@H](C)O)C(=O)N[C@@H](CO)C(=O)N[C@@H](CCCCN)C(=O)N[C@@H](Cc1ccc(O)cc1)C(=O)N[C@@H](CC(C)C)C(=O)N[C@@H](CC(=O)O)C(=O)NC(C)(C)C(=O)N[C@@H](CCCNC(=N)N)C(=O)N[C@@H](CCCNC(=N)N)C(=O)N[C@@H](C)C(=O)N[C@@H](CCC(N)=O)C(=O)N[C@@H](CC(=O)O)C(=O)N[C@@H](Cc1ccccc1)C(=O)N[C@H](C(=O)N[C@@H](CCC(N)=O)C(=O)N[C@@H](Cc1c[nH]c2ccccc12)C(=O)N[C@@H](CC(C)C)C(=O)N[C@@H](CCSC)C(=O)N[C@@H](CC(N)=O)C(=O)N[C@H](C(=O)N[C@@H](CCCCN)C(=O)N[C@@H](CCC(=O)O)C(=O)N[C@@H](Cc1ccc(O)cc1)C(=O)N[C@@H](CCC(=O)O)C(=O)N[C@@H](CCCCNC(=O)CCCCCCCCCCCCC(=O)O)C(=O)N[C@@H](CCC(=O)O)C(=O)N[C@@H](Cc1ccc(O)cc1)C(=O)N[C@@H](CCC(=O)O)C(=O)O)[C@@H](C)O)C(C)C)C(=O)O [Compound 1]
half-life (in vivo [1]; Mouse PK (S.C. half-life)): > 6 h | half-life (in vivo [1]; half-life in mice): > 6 h | half-life (in vivo [2]; Monkey PK (S.C. half-life)): 12 to 18 h | half-life (in vivo [2]; monkey PK half-life): > 12 h | Emax (GLP-1 receptor): 102% | EC50 (GLP-1 receptor): < 0.1 nM | Emax (glucagon receptor): 107% | EC50 (glucagon receptor): < 0.1 nM

CCCCCCCCCCCCCCCCCC(=O)N[C@@H](CCC(=O)NCCOCCOCC(=O)NCCOCCOCC(=O)NCCCC[C@H](NC(=O)[C@H](CC(=O)O)NC(=O)[C@H](CO)NC(=O)[C@@H](NC(=O)[C@H](Cc1ccccc1)NC(=O)[C@@H](NC(=O)CNC(=O)[C@H](CCC(N)=O)NC(=O)C(C)(C)NC(=O)[C@@H](N)Cc1c[nH]cn1)[C@@H](C)O)[C@@H](C)O)C(=O)N[C@@H](CO)C(=O)N[C@@H](CCCCN)C(=O)N[C@@H](Cc1ccc(O)cc1)C(=O)N[C@@H](CC(C)C)C(=O)N[C@@H](CC(=O)O)C(=O)NC(C)(C)C(=O)N[C@@H](CCCNC(=N)N)C(=O)N[C@@H](CCCNC(=N)N)C(=O)N[C@@H](C)C(=O)N[C@@H](CCC(N)=O)C(=O)N[C@@H](CC(=O)O)C(=O)N[C@@H](Cc1ccccc1)C(=O)N[C@H](C(=O)N[C@@H](CCC(N)=O)C(=O)N[C@@H](Cc1c[nH]c2ccccc12)C(=O)N[C@@H](CC(C)C)C(=O)N[C@@H](CCSC)C(=O)N[C@@H](CC(N)=O)C(=O)N[C@H](C(=O)N[C@@H](CCCCN)C(=O)N[C@@H](CCC(=O)O)C(=O)N[C@@H](Cc1ccc(O)cc1)C(=O)N[C@@H](CCC(=O)O)C(=O)N[C@@H](CCCCNC(=O)CCCCCCCCCCCCCCC(=O)O)C(=O)N[C@@H](CCC(=O)O)C(=O)N[C@@H](Cc1ccc(O)cc1)C(=O)N[C@@H](CCC(=O)O)C(=O)O)[C@@H](C)O)C(C)C)C(=O)O [Compound 2]
half-life (in vivo [1]; Mouse PK (S.C. half-life)): > 6 h | half-life (in vivo [1]; half-life in mice): > 6 h | half-life (in vivo [2]; Monkey PK (S.C. half-life)): 12 to 18 h | half-life (in vivo [2]; monkey PK half-life): > 12 h | Emax (GLP-1 receptor): 104% | EC50 (GLP-1 receptor): 0.1 to 1 nM | Emax (glucagon receptor): 100% | EC50 (glucagon receptor): 0.1 to 1 nM

CCCCCCCCCCCCCCCCCC(=O)N[C@@H](CCC(=O)NCCOCCOCC(=O)NCCOCCOCC(=O)NCCCC[C@H](NC(=O)[C@H](CC(=O)O)NC(=O)[C@H](CO)NC(=O)[C@@H](NC(=O)[C@H](Cc1ccccc1)NC(=O)[C@@H](NC(=O)CNC(=O)[C@H](CCC(N)=O)NC(=O)C(C)(C)NC(=O)[C@@H](N)Cc1c[nH]cn1)[C@@H](C)O)[C@@H](C)O)C(=O)N[C@@H](CO)C(=O)N[C@@H](CCCCN)C(=O)N[C@@H](Cc1ccc(O)cc1)C(=O)N[C@@H](CC(C)C)C(=O)N[C@@H](CC(=O)O)C(=O)NC(C)(C)C(=O)N[C@@H](CCCNC(=N)N)C(=O)N[C@@H](CCCNC(=N)N)C(=O)N[C@@H](C)C(=O)N[C@@H](CCC(N)=O)C(=O)N[C@@H](CC(=O)O)C(=O)N[C@@H](Cc1ccccc1)C(=O)N[C@H](C(=O)N[C@@H](CCC(N)=O)C(=O)N[C@@H](Cc1c[nH]c2ccccc12)C(=O)N[C@@H](CC(C)C)C(=O)N[C@@H](CCSC)C(=O)N[C@@H](CC(N)=O)C(=O)N[C@H](C(=O)N[C@@H](CCCCN)C(=O)N[C@@H](CCC(=O)O)C(=O)N[C@@H](Cc1ccc(O)cc1)C(=O)N[C@@H](CCC(=O)O)C(=O)N[C@@H](CCCCNC(=O)CCCCCCCCCCCCCCCCC(N)=O)C(=O)N[C@@H](CCC(=O)O)C(=O)N[C@@H](Cc1ccc(O)cc1)C(=O)N[C@@H](CCC(=O)O)C(=O)O)[C@@H](C)O)C(C)C)C(=O)O [Compound 7]
half-life (in vivo [1]; Mouse PK (S.C. half-life)): > 6 h | half-life (in vivo [1]; half-life in mice): > 6 h | half-life (in vivo [2]; Monkey PK (S.C. half-life)): > 24 h | half-life (in vivo [2]; monkey PK half-life): > 24 h | Emax (GLP-1 receptor): 90.8% | EC50 (GLP-1 receptor): < 0.1 nM | Emax (glucagon receptor): 100% | EC50 (glucagon receptor): < 0.1 nM

CCCCCCCCCCCCCCCCCC(=O)N[C@@H](CCC(=O)NCCOCCOCC(=O)NCCOCCOCC(=O)NCCCC[C@H](NC(=O)[C@H](CC(=O)O)NC(=O)[C@H](CO)NC(=O)[C@@H](NC(=O)[C@H](Cc1ccccc1)NC(=O)[C@@H](NC(=O)CNC(=O)[C@H](CCC(N)=O)NC(=O)C(C)(C)NC(=O)[C@@H](N)Cc1c[nH]cn1)[C@@H](C)O)[C@@H](C)O)C(=O)N[C@@H](CO)C(=O)N[C@@H](CCCCN)C(=O)N[C@@H](Cc1ccc(O)cc1)C(=O)N[C@@H](CC(C)C)C(=O)N[C@@H](CC(=O)O)C(=O)NC(C)(C)C(=O)N[C@@H](CCCNC(=N)N)C(=O)N[C@@H](CCCNC(=N)N)C(=O)N[C@@H](C)C(=O)N[C@@H](CCC(N)=O)C(=O)N[C@@H](CC(=O)O)C(=O)N[C@@H](Cc1ccccc1)C(=O)N[C@H](C(=O)N[C@@H](CCC(N)=O)C(=O)N[C@@H](Cc1c[nH]c2ccccc12)C(=O)N[C@@H](CC(C)C)C(=O)N[C@@H](CCSC)C(=O)N[C@@H](CC(N)=O)C(=O)N[C@H](C(=O)N[C@@H](CCCCN)C(=O)O)[C@@H](C)O)C(C)C)C(=O)O [Compound 8]
half-life (in vivo [1]; Mouse PK (S.C. half-life)): < 6 h | Emax (GLP-1 receptor): 99.3% | EC50 (GLP-1 receptor): < 0.1 nM | Emax (glucagon receptor): 103% | EC50 (glucagon receptor): < 0.1 nM

HSQGTFTSDYSKYLDSRRAQDFVQWLMNTKRNRNNIA (HSQGTFTSDKSKYLDSRRAQDFVQWLMNTKRNRNNIA; listed as Homo sapiens) [oxyntomodulin]
body weight loss on average [3]: 2.3 kg

B1: Comparative Example Compound 12 (peptide)
peptide: H-H[Aib]QGTFTSDK([AEEA-AEEA-γGlu-Stearoyl])SKYLD[Aib]RRAQDFVQWLMNTKEYEK([AEEA-AEEA-AEEA-Palmitoyl])EYE-OH
SMILES: CCCCCCCCCCCCCCCCCC(=O)N[C@@H](CCC(=O)NCCOCCOCC(=O)NCCOCCOCC(=O)NCCCC[C@H](NC(=O)[C@H](CC(=O)O)NC(=O)[C@H](CO)NC(=O)[C@@H](NC(=O)[C@H](Cc1ccccc1)NC(=O)[C@@H](NC(=O)CNC(=O)[C@H](CCC(N)=O)NC(=O)C(C)(C)NC(=O)[C@@H](N)Cc1c[nH]cn1)[C@@H](C)O)[C@@H](C)O)C(=O)N[C@@H](CO)C(=O)N[C@@H](CCCCN)C(=O)N[C@@H](Cc1ccc(O)cc1)C(=O)N[C@@H](CC(C)C)C(=O)N[C@@H](CC(=O)O)C(=O)NC(C)(C)C(=O)N[C@@H](CCCNC(=N)N)C(=O)N[C@@H](CCCNC(=N)N)C(=O)N[C@@H](C)C(=O)N[C@@H](CCC(N)=O)C(=O)N[C@@H](CC(=O)O)C(=O)N[C@@H](Cc1ccccc1)C(=O)N[C@H](C(=O)N[C@@H](CCC(N)=O)C(=O)N[C@@H](Cc1c[nH]c2ccccc12)C(=O)N[C@@H](CC(C)C)C(=O)N[C@@H](CCSC)C(=O)N[C@@H](CC(N)=O)C(=O)N[C@H](C(=O)N[C@@H](CCCCN)C(=O)N[C@@H](CCC(=O)O)C(=O)N[C@@H](Cc1ccc(O)cc1)C(=O)N[C@@H](CCC(=O)O)C(=O)N[C@@H](CCCCNC(=O)COCCOCCNC(=O)COCCOCCNC(=O)COCCOCCNC(=O)CCCCCCCCCCCCCCC)C(=O)N[C@@H](CCC(=O)O)C(=O)N[C@@H](Cc1ccc(O)cc1)C(=O)N[C@@H](CCC(=O)O)C(=O)O)[C@@H](C)O)C(C)C)C(=O)O
EC50 (Human GLP-1 receptor): < 0.1 nM | Maximum activation (% vs GLP-1) (Human GLP-1 receptor): 102% | EC50 (Human glucagon receptor): < 0.1 nM | Maximum activation (% vs GCG) (Human glucagon receptor): 89.6%
